Measured values taken from patent US7410989B2, “Compounds, methods and compositions useful for the treatment of bovine viral diarrhea virus (BVDV) infection and hepatitis C virus (HCV) infection” (The University of North Carolina at Chapel Hill, priority 2001, dated 2008).
Structures can show the parent of a compound that is named as a salt.

Experiments:
[1] = system: BVDV; test: Screening of antiviral compounds for anti-BVDV activity in MDBK cells; virus titre by immunoperoxidase monolayer assay; type: cell-based, bovine viral diarrhea virus; settings: for Day 3 Media TCID50/mL / Day 3 Media % Control / Day 7 Media TCID50/mL / Day 7 Media % Control: culture medium
Description: 2.0 cm^2 wells in a 24-well plate were seeded with 50 μl of medium from 12 ml of MEM-eq (minimum essential medium (MEM) with Earle's salts supplemented with 10% (v/v) equine serum, sodium bicarbonate (0.75 mg/ml), L-glutamine (0.29 mg/ml), penicillin G (100 U/ml), streptomycin (100 μg/ml), and amphotericin B (0.25 μg/ml)), which was derived by trypsinization of a confluent monolayer of Madin Darby Bovine Kidney (MDBK) cells in a 25 cm^2 flask. Cells were incubated at 38.5° C. with 5% CO2 for 24 hours. The average number of cells per well was determined and later used to calculate appropriate multiplicities of infection (MOI) of BVDV virus. […]
The inoculated cells incubated for one hour at 38.5° C. with 5% CO2 in humidified air. The medium was removed from the wells, and the cells washed one time with Ca^2+ and Mg^2+-free PBS comprising antiviral compound (12.5 μM) (cells in the wells not initially treated with antiviral compounds were washed without antiviral compound). […] Three days post-inoculation, medium was removed and stored at −20° C. for assay. […] Seven days post-inoculation, medium was removed and stored at −80° C. for serial dilution & assay.
The MDBK cells were resuspended in MEM-eq with no antiviral compound. Uterine tubal cells (UTC) were freeze-thawed and stored at −80° C. for analysis. UTC lysates were serially diluted with medium from Day 7 and assayed by immunoperoxidase for the presence of BVDV.
All samples were assayed for BVDV using the immunoperoxidase monolayer assay as described in A. Afshar et al., Can J Vet Res; 55:91-93 (1991). Samples were assayed in triplicate by adding 50 μL of MEM-eq containing approximately 2.5×10^3 MDBK cells to 50-μL of each sample supplemented with 50 μL of fresh MEM-eq in a 96-well culture plate. Plates were incubated for 72 h at 38.5° C. in a humidified atmosphere of 5% CO2 and air before the immunoperoxidase labeling technique was performed as follows:
After fixation, potentially infected cells were incubated with monoclonal antibodies D89 (M. L. Vickers et al., J Vet Diagn Invest 2, 300-302 (1990); Xue W et al., J Clin Microbiol 28, 1688-1693 […] specific for E2/gp53, a major envelope glycoprotein of BVDV (Xue W et al., Vet Microbiol 57, 105-118 (1997)) and 20.10.6 specific for NS3-p80, a conserved nonstructural protein (W. V. Corapi et al., Am J Vet Res 51, 1388-1394 (1990)). After washing with PBS and Tween 20 to remove unbound antibodies, peroxidase-conjugated rabbit anti-mouse IgG (Jackson Immuno Research Lab, West Grove, Pa.) was added. After a short incubation period, unbound peroxidase-conjugated antibody was removed by washing with PBS and Tween 20. Finally, the enzyme substrate, aminoethyl carbazole (Zymed Laboratories, Inc., South San Francisco, Calif.), which produces a reddish-brown color when oxidized by horseradish peroxidase, was added. Color change was visualized under light microscopy and compared to known positive and negative controls on each plate.
The tissue culture infective dose 50% (TCID50)/ml of the exposure aliquot was determined by the method of Reed and Muench (L. J. Reed and H. Muench, Am J Hygiene 27, 493-497 (1938). Results of viral detection assays were compared using a Pearson Chi-square test statistic (J. Sall and A. Lehman, JMP Start Statistics (Duxbury Press, Belmont, Calif. (1996), 195-211).

[2] = 12.5 μM compound, BVDV MOI 0.05
[3] = 12.5 μM compound, BVDV MOI 0.05, titre as % of no-antiviral control
[4] = 12.5 μM compound, BVDV MOI 1.0, titre as % of no-antiviral control
[5] = compound at 0.2 μm, BVDV MOI 0.05
[6] = compound at 0.4 μm, BVDV MOI 0.05
[7] = compound at 0.7 μm, BVDV MOI 0.05
[8] = compound at 1.5 μm, BVDV MOI 0.05
[9] = compound at 3 μm, BVDV MOI 0.05
[10] = compound at 6 μm, BVDV MOI 0.05
[11] = compound at 12 μm, BVDV MOI 0.05
[12] = compound at 25 μm, BVDV MOI 0.05
[13] = 12.5 μM compound, BVDV MOI 0.5, titre as % of no-antiviral control

Cc1cc(NC(=N)N)ccc1-c1ccc(-c2ccc(NC(=N)N)cc2C)o1.Cl.Cl
melting point: 265 to 271 °C (dec.)

Cl.Cl.N=C(N)Nc1ccc(-c2ccc(-c3ccc(NC(=N)N)cc3Cl)o2)c(Cl)c1
melting point: 300 to 304 °C (dec.)

Nc1ccc(-c2ccc(-c3nc4ccc(C5=NCCN5)cc4[nH]3)o2)cc1 (as salt: salt) [DB 456, 2-[5 (6)-{2-imidazolinyl}-2-benzimidazoyl]-5-(4-aminophenyl)furan]
melting point: > 300 °C

O=[N+]([O-])c1ccc(-c2ccc(-c3nc4ccc(C5=NCCN5)cc4[nH]3)o2)cc1 (as salt: salt) [DB 457, 2-[5 (6)-{2-imidazolinyl}-2-benzimidazoyl]-5-(4-nitrophenyl)furan]
melting point: > 300 °C

N=C(N)c1ccc(-c2ccc(-c3cccc(C(=N)N)c3)[nH]2)cc1 [DB619]
Day 7 Cell Lysates TCID50/mL [1, 2]: 1.10E+06 TCID50/mL
Day 7 Cell Lysates % Control [1, 3]: 55.00%
Day 3 Media TCID50/mL [1, 2]: 3.50E+02 TCID50/mL
Day 3 Media % Control [1, 3]: 0.18%
Day 7 Media TCID50/mL [1, 2]: 2.00E+05 TCID50/mL
Day 7 Media % Control [1, 3]: 38.46%
Day 7 Cell Lysates TCID50/mL ([1]; 12.5 μM compound, BVDV MOI 1.0): 3.50E+05 TCID50/mL
Day 7 Cell Lysates % Control [1, 4]: 56.45%
Day 3 Media TCID50/mL ([1]; 12.5 μM compound, BVDV MOI 1.0): 6.20E+04 TCID50/mL
Day 3 Media % Control [1, 4]: 17.71%
Day 7 Media TCID50/mL ([1]; 12.5 μM compound, BVDV MOI 1.0): 3.50E+04 TCID50/mL
Day 7 Media % Control [1, 4]: 100.00%

N=C(N)Nc1ccc(-c2ccc(-c3ccc(NC(=N)N)cc3)o2)cc1 [DB673]
Day 7 Cell Lysates TCID50/mL [1, 2]: 3.50E+04 TCID50/mL
Day 7 Cell Lysates % Control [1, 3]: 1.75%
Day 3 Media TCID50/mL [1, 2]: 1.00E+02 TCID50/mL
Day 3 Media % Control [1, 3]: 0.05%
Day 7 Media TCID50/mL [1, 2]: 6.20E+03 TCID50/mL
Day 7 Media % Control [1, 3]: 1.19%
Day 7 Cell Lysates TCID50/mL ([1]; 12.5 μM compound, BVDV MOI 1.0): 2.70E+05 TCID50/mL
Day 7 Cell Lysates % Control [1, 4]: 43.55%
Day 3 Media TCID50/mL ([1]; 12.5 μM compound, BVDV MOI 1.0): 3.50E+02 TCID50/mL
Day 3 Media % Control [1, 4]: 0.10%
Day 7 Media TCID50/mL ([1]; 12.5 μM compound, BVDV MOI 1.0): 2.00E+05 TCID50/mL
Day 7 Media % Control [1, 4]: 571.43%

Nc1ccc(-c2ccc(-c3nc4ccc(C5=NCCN5)cc4[nH]3)o2)cc1 [DB 456, 2-[5 (6)-{2-imidazolinyl}-2-benzimidazoyl]-5-(4-aminophenyl)furan]
Day 3 Cell Lysates % Control [1, 5]: 100.0000%
Day 3 Cell Lysates TCID50/mL [1, 5]: 3.50E+05 TCID50/mL
Day 3 Media % Control [1, 5]: 31.5000%
Day 3 Media TCID50/mL [1, 5]: 6.30E+05 TCID50/mL
Day 3 Cell Lysates % Control [1, 6]: 1000.0000%
Day 3 Cell Lysates TCID50/mL [1, 6]: 3.50E+06 TCID50/mL
Day 3 Media % Control [1, 6]: 31.5000%
Day 3 Media TCID50/mL [1, 6]: 6.30E+05 TCID50/mL
Day 3 Cell Lysates % Control [1, 7]: 1000.0000%
Day 3 Cell Lysates TCID50/mL [1, 7]: 3.50E+06 TCID50/mL
Day 3 Media % Control [1, 7]: 31.5000%
Day 3 Media TCID50/mL [1, 7]: 6.30E+05 TCID50/mL
Day 3 Cell Lysates % Control [1, 8]: 1000.0000%
Day 3 Cell Lysates TCID50/mL [1, 8]: 3.50E+06 TCID50/mL
Day 3 Media % Control [1, 8]: 25.5000%
Day 3 Media TCID50/mL [1, 8]: 5.10E+05 TCID50/mL
Day 3 Cell Lysates % Control [1, 9]: 177.1429%
Day 3 Cell Lysates TCID50/mL [1, 9]: 6.20E+05 TCID50/mL
Day 3 Media % Control [1, 9]: 17.5000%
Day 3 Media TCID50/mL [1, 9]: 3.50E+05 TCID50/mL
Day 3 Cell Lysates % Control [1, 10]: 10.0000%
Day 3 Cell Lysates TCID50/mL [1, 10]: 3.50E+04 TCID50/mL
Day 3 Media % Control [1, 10]: 1.7500%
Day 3 Media TCID50/mL [1, 10]: 3.50E+04 TCID50/mL
Day 3 Cell Lysates % Control [1, 11]: 1.0000%
Day 3 Cell Lysates TCID50/mL [1, 11]: 3.50E+03 TCID50/mL
Day 3 Media % Control [1, 11]: 0.0310%
Day 3 Media TCID50/mL [1, 11]: 6.20E+02 TCID50/mL
Day 3 Cell Lysates % Control [1, 12]: 0.5714%
Day 3 Cell Lysates TCID50/mL [1, 12]: 2.00E+03 TCID50/mL
Day 3 Media % Control [1, 12]: 0.1750%
Day 3 Media TCID50/mL [1, 12]: 3.50E+03 TCID50/mL

O=[N+]([O-])c1ccc(-c2ccc(-c3nc4ccc(C5=NCCN5)cc4[nH]3)o2)cc1 [DB 457, 2-[5 (6)-{2-imidazolinyl}-2-benzimidazoyl]-5-(4-nitrophenyl)furan]
Day 3 Cell Lysates TCID50/mL ([1]; 12.5 μM compound, BVDV MOI 0.5): 3.50E+02 TCID50/mL
Day 3 Cell Lysates % Control [1, 13]: 0.0056%
Day 3 Media TCID50/mL ([1]; 12.5 μM compound, BVDV MOI 0.5): 1.00E+02 TCID50/mL
Day 3 Media % Control [1, 13]: 0.0029%

CC(C)NC(=N)c1ccc2[nH]c(-c3ccc(-c4ccc([N+](=O)[O-])cc4)o3)nc2c1 [DB 458, 2-[5 (6)-{N-isopropylamidino}-2-benzimidazoyl]-5-(4-nitrophenyl)furan]
Day 3 Cell Lysates TCID50/mL ([1]; 12.5 μM compound, BVDV MOI 0.5): Negative
Day 3 Media TCID50/mL ([1]; 12.5 μM compound, BVDV MOI 0.5): Negative

CC(C)NC(=N)c1ccc2[nH]c(-c3ccc(-c4ccc(N)cc4)o3)nc2c1 [DB 459, 2-[5(6)-N-isopropylamidino-2-benzimidazoyl]-5-(4-aminophenyl)furan]
Day 3 Cell Lysates TCID50/mL ([1]; 12.5 μM compound, BVDV MOI 0.5): 1.00E+02 TCID50/mL
Day 3 Cell Lysates % Control [1, 13]: 0.0016%
Day 3 Media TCID50/mL ([1]; 12.5 μM compound, BVDV MOI 0.5): Negative

COc1ccc(-c2ccc(-c3ccc(C4=NCCN4)cc3)o2)cc1 [DB 606]
Day 3 Cell Lysates TCID50/mL ([1]; 12.5 μM compound, BVDV MOI 0.5): Negative
Day 3 Media TCID50/mL ([1]; 12.5 μM compound, BVDV MOI 0.5): Negative

Cc1cc(NC(=N)N)ccc1-c1ccc(-c2ccc(NC(=N)N)cc2C)o1 [DB 680]
Day 3 Cell Lysates TCID50/mL ([1]; 12.5 μM compound, BVDV MOI 0.5): Negative
Day 3 Media TCID50/mL ([1]; 12.5 μM compound, BVDV MOI 0.5): Negative

N=C(N)Nc1ccc(-c2ccc(-c3ccc(NC(=N)N)cc3C(F)(F)F)o2)c(C(F)(F)F)c1 [DB 701]
Day 3 Cell Lysates TCID50/mL ([1]; 12.5 μM compound, BVDV MOI 0.5): 3.50E+04 TCID50/mL
Day 3 Cell Lysates % Control [1, 13]: 0.5645%
Day 3 Media TCID50/mL ([1]; 12.5 μM compound, BVDV MOI 0.5): 6.20E+03 TCID50/mL
Day 3 Media % Control [1, 13]: 0.1771%

N=C(N)Nc1ccc(-c2ccc(-c3cccc(NC(=N)N)c3)o2)cc1 [DB 705]
Day 3 Cell Lysates TCID50/mL ([1]; 12.5 μM compound, BVDV MOI 0.5): Negative
Day 3 Media TCID50/mL ([1]; 12.5 μM compound, BVDV MOI 0.5): Negative

N=C(N)Nc1ccc(-c2ccc(-c3ccc(NC(=N)N)cc3Cl)o2)c(Cl)c1 [DB 708]
Day 3 Cell Lysates TCID50/mL ([1]; 12.5 μM compound, BVDV MOI 0.5): Negative
Day 3 Media TCID50/mL ([1]; 12.5 μM compound, BVDV MOI 0.5): Negative

COc1cc(NC(=N)N)ccc1-c1ccc(-c2ccc(NC(=N)N)cc2OC)o1 [DB 711]
Day 3 Cell Lysates TCID50/mL ([1]; 12.5 μM compound, BVDV MOI 0.5): 2.00E+07 TCID50/mL
Day 3 Cell Lysates % Control [1, 13]: 322.5806%
Day 3 Media TCID50/mL ([1]; 12.5 μM compound, BVDV MOI 0.5): 2.40E+05 TCID50/mL
Day 3 Media % Control [1, 13]: 6.8571%

Cc1cc(NC(=N)N)ccc1-c1ccc(-c2ccc(NC(=N)N)cc2C)s1 [DB 752]
Day 3 Cell Lysates TCID50/mL ([1]; 12.5 μM compound, BVDV MOI 0.5): 6.20E+02 TCID50/mL
Day 3 Cell Lysates % Control [1, 13]: 0.01%
Day 3 Media TCID50/mL ([1]; 12.5 μM compound, BVDV MOI 0.5): Negative
